Source: the NIST ThermoML archive (doi:10.1021/je4004806)

Assay: xn = mol fraction of the nth substance listed
Conditions: 101 kPa, Liquid; for viscosity: Capillary tube (Ostwald / Ubbelohde) method; for mass density: Vibrating tube method

CCCCCO [pentan-1-ol] + CCCCCCCC
Conditions	mass density [kg/m3]	viscosity [mPa·s]
293.15 K, x2 = 0	814.59	4.042
293.15 K, x2 = 0.1004	798.43	2.938
293.15 K, x2 = 0.201	783.65	2.237
293.15 K, x2 = 0.3001	770.3	1.695
293.15 K, x2 = 0.4	757.91	1.311
293.15 K, x2 = 0.4984	746.71	1.046
293.15 K, x2 = 0.5967	736.39	0.863
293.15 K, x2 = 0.6976	726.7	0.737
293.15 K, x2 = 0.7983	717.79	0.652
293.15 K, x2 = 0.8998	709.68	0.588
298.15 K, x2 = 0	810.93	3.518
298.15 K, x2 = 0.1004	794.68	2.568
298.15 K, x2 = 0.201	779.81	1.972
298.15 K, x2 = 0.3001	766.39	1.509
298.15 K, x2 = 0.4	753.94	1.18
298.15 K, x2 = 0.4984	742.7	0.953
298.15 K, x2 = 0.5967	732.34	0.796
298.15 K, x2 = 0.6976	722.64	0.685
298.15 K, x2 = 0.7983	713.72	0.605
298.15 K, x2 = 0.8998	705.59	0.55
303.15 K, x2 = 0	807.24	3.06
303.15 K, x2 = 0.1004	790.89	2.254
303.15 K, x2 = 0.201	775.94	1.747
303.15 K, x2 = 0.3001	762.45	1.349
303.15 K, x2 = 0.4	749.95	1.068
303.15 K, x2 = 0.4984	738.67	0.873
303.15 K, x2 = 0.5967	728.27	0.736
303.15 K, x2 = 0.6976	718.55	0.638
303.15 K, x2 = 0.7983	709.62	0.567
303.15 K, x2 = 0.8998	701.48	0.516
308.15 K, x2 = 0	803.53	2.659
308.15 K, x2 = 0.1004	787.09	1.984
308.15 K, x2 = 0.201	772.05	1.564
308.15 K, x2 = 0.3001	758.49	1.219
308.15 K, x2 = 0.4	745.93	0.971
308.15 K, x2 = 0.4984	734.6	0.802
308.15 K, x2 = 0.5967	724.18	0.682
308.15 K, x2 = 0.6976	714.44	0.596
308.15 K, x2 = 0.7983	705.49	0.532
308.15 K, x2 = 0.8998	697.35	0.486
313.15 K, x2 = 0	799.79	2.334
313.15 K, x2 = 0.1004	783.26	1.755
313.15 K, x2 = 0.201	768.13	1.393
313.15 K, x2 = 0.3001	754.5	1.11
313.15 K, x2 = 0.4	741.88	0.882
313.15 K, x2 = 0.4984	730.52	0.738
313.15 K, x2 = 0.5967	720.07	0.636
313.15 K, x2 = 0.6976	710.3	0.557
313.15 K, x2 = 0.7983	701.34	0.499
313.15 K, x2 = 0.8998	693.2	0.457
318.15 K, x2 = 0	796.03	2.042
318.15 K, x2 = 0.1004	779.4	1.557
318.15 K, x2 = 0.201	764.17	1.249
318.15 K, x2 = 0.3001	750.47	1.01
318.15 K, x2 = 0.4	737.81	0.807
318.15 K, x2 = 0.4984	726.4	0.681
318.15 K, x2 = 0.5967	715.92	0.589
318.15 K, x2 = 0.6976	706.14	0.521
318.15 K, x2 = 0.7983	697.16	0.47
318.15 K, x2 = 0.8998	689.02	0.431
323.15 K, x2 = 0	792.23	1.805
323.15 K, x2 = 0.1004	775.5	1.389
323.15 K, x2 = 0.201	760.18	1.117
323.15 K, x2 = 0.3001	746.41	0.911
323.15 K, x2 = 0.4	733.69	0.74
323.15 K, x2 = 0.4984	722.24	0.63
323.15 K, x2 = 0.5967	711.74	0.549
323.15 K, x2 = 0.6976	701.94	0.488
323.15 K, x2 = 0.7983	692.95	0.442
323.15 K, x2 = 0.8998	684.81	0.406
